According to publication PMC6220849, “Mechanistic and structural studies of KDM‐catalysed demethylation of histone 1 isotype 4 at lysine 26” (Febs Letters, 2018):
Square brackets hold non-standard residues; d marks the D form. Ends that are not written are not given here. Lys(Me3) = C[N+](C)(C)CCCC[C@H](N)C(=O)O

What was measured:
KDM4A = experiment: 1H NMR activity assay (time course); assay type: biochemical, human; settings: KDM4A 10 μM, peptide 400 μM, 2OG 400 μM, Fe(II) 100 μM, ascorbate 1 mM, 50 mM ammonium formate pH 7.5, 500 mM NaCl, 700 MHz
Procedure: The NMR analyses employed a Bruker Avance III 700 MHz spectrometer with an inverse TCI cryoprobe optimised for ^1H observation and were carried out as previously described 6. Samples (KDM4A (10 μM), 2OG (400 μM), H1.4(18–32)K26me3 peptide (400 μM), Fe(II) ammonium sulfate (100 μM) and ascorbate (1 mM) in 50 mM ammonium formate, pH 7.5, 500 mM NaCl in 10% v/v D2O) were prepared in a microcentrifuge tube (total volume = 75 μL), before being transferred to an NMR tube. The samples were then analysed over time using automated routines; each time‐point corresponded to one experiment accumulating 16 transients (89 s total acquisition time per experiment). The solvent resonance was depleted by excitation sculpting using a 180° sinc pulse (duration = 2 ms) 30.
Studies then focused on determining the proficiency of H1.4K26 demethylation by the KDM4 enzymes.

recombinant human KDM4A = molecular target: T1, recombinant human KDM4A (Homo sapiens, UniProt O75164); experiment: Formaldehyde dehydrogenase (FDH)-coupled demethylation assay, Michaelis–Menten kinetics; assay type: biochemical; settings: peptide as substrate
T1 construct: recombinantly expressed as reported either in Escherichia coli (KDM2A1–557 25, KDM4A1–359 26); His6 (N); made in house; host or cells: Escherichia coli
T1 sequence (O75164 1-359): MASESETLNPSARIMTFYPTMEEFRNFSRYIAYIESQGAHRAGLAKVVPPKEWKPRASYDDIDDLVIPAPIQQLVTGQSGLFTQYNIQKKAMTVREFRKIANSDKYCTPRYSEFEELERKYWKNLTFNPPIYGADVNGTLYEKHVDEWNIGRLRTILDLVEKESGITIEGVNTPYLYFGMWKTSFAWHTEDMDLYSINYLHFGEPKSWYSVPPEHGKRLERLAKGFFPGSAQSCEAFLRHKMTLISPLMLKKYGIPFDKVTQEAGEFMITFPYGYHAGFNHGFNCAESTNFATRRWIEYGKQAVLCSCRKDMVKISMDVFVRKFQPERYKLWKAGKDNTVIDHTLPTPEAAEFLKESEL
Procedure: Kinetic parameters for KDM4 enzymes were determined by use of an FDH (formaldehyde dehydrogenase)/NAD^+‐coupled) assay for quantification of the formaldehyde reaction byproduct, as previously described 27. […] Specific activities were measured using a 100‐μM peptide. For Michaelis–Menten experiments, peptide concentrations were varied. Reactions were monitored using a PHERAstar FS plate reader (BMG Labtech, Ortenberg, Germany) with 355 nm excitation and 460 nm emission. Kinetic parameters were calculated from the reaction rate during the initial linear phase of formaldehyde production, which were used to calculate specific activities or fitted to Michaelis–Menten equations using […] PRISM (GraphPad Software, La Jolla, CA, USA).
Michaelis–Menten kinetics were then conducted with KDM4A. Samples containing KDM4A, 2OG, ascorbate, H1.4K26me3 peptide, NAD^+ and FDH were analysed over time and kinetic parameters were determined by recording the initial reaction rates of NADH production (corresponding to enzymatic production of formaldehyde) at varying peptide concentration.

KDM3A (KDM3A515–1317) = experiment: MALDI-TOF MS demethylation activity assay, KDM3A; assay type: biochemical, human; set-up: key: 🟢: Indicates that clear demethylation activity was observed; 🟡: Indicates that low level demethylation activity was observed (<10% conversion after 1 h); 🔴: Indicates no activity under the stated conditions (1 μM KDM, 10 μM peptide); 🟡*: *Indicates demethylation activity was only observed with 5 μM KDM; settings: peptide as substrate, 1 μM KDM, 10 μM peptide, 50 mM HEPES pH 7.5, Fe(II) 10 μM, ascorbate 100 μM, 2OG 200 μM, 1 mM TCEP, 1 h at 37 °C
Procedure: (§1) Recombinant proteins (1 μM) were incubated with peptides (10 μM, sequences are given in Table S1) in 50 mM HEPES, pH 7.5 with addition of Fe(II) ammonium sulfate (10 μM), sodium ascorbate (100 μM) and 2‐oxoglutaric acid (200 μM). Reactions with KDM3A and KDM7A also contained 1 mM tris(2‐carboxyethyl)phosphine hydrochloride. No enzyme reactions were included as negative controls. Reactions were incubated for 1 h at 37 °C before being quenched with 1 : 1 (v/v) methanol. Analysis was carried out by MALDI‐TOF MS (Bruker, Billerica, MA, USA), with demethylation observed as mass shifts of 14 Da.
(§2) The propensity of human JmjC KDMs to catalyse demethylation at H1.4K26 was investigated using recombinant forms of the catalytic domains of representatives of each human JmjC KDM subfamily (KDM2‐7) and fragment peptides (Table S1) 37. Three peptides with identical sequences, corresponding to residues 18–32 of histone H1.4 (H2N‐[…]‐CONH2), but containing either a N ^ε‐tri‐, di‐ or monomethyllysine at K26 were synthesised (Fig. 1B and Table S1). Activity assays monitoring JmjC KDM‐catalysed demethylation of the peptides were then carried out; samples were prepared containing each peptide, 2‐oxoglutarate (2OG), ferrous iron, ascorbate and individual representatives from each JmjC KDM subfamily (KDM2A 38, KDM3A 21, KDM4E 22, KDM5C 39, 40, KDM6B 41, KDM7A 42).

KDM6B (KDM6B1141–1590) = experiment: MALDI-TOF MS demethylation activity assay, KDM6B; assay type: biochemical, human; set-up: key: 🟢: Indicates that clear demethylation activity was observed; 🟡: Indicates that low level demethylation activity was observed (<10% conversion after 1 h); 🔴: Indicates no activity under the stated conditions (1 μM KDM, 10 μM peptide); 🟡*: *Indicates demethylation activity was only observed with 5 μM KDM; settings: peptide as substrate, 1 μM KDM, 10 μM peptide, 50 mM HEPES pH 7.5, Fe(II) 10 μM, ascorbate 100 μM, 2OG 200 μM, 1 h at 37 °C
Procedure: as §1, §2

KDM4A (KDM4A1–359) = experiment: MALDI-TOF MS demethylation activity assay, KDM4A; assay type: biochemical, human; set-up: key: 🟢: Indicates that clear demethylation activity was observed; 🟡: Indicates that low level demethylation activity was observed (<10% conversion after 1 h); 🔴: Indicates no activity under the stated conditions (1 μM KDM, 10 μM peptide); 🟡*: *Indicates demethylation activity was only observed with 5 μM KDM; settings: peptide as substrate, 1 μM KDM, 10 μM peptide, 50 mM HEPES pH 7.5, Fe(II) 10 μM, ascorbate 100 μM, 2OG 200 μM, 1 h at 37 °C
Procedure: as §1
Given the activity observed with KDM4E and KDM7A, we decided to investigate the intra‐subfamily conservation of this demethylation activity. The demethylation activity of the other subfamily members (KDM4A‐D and KDM7B) was therefore screened. […] Note that as with H3K9, demethylation of the monomethylated H1.4K26 peptide was only observed with KDM4E, under the stated conditions 24.

[1] = concentration varied, FDH/NAD+-coupled fluorescence assay, 50 mM HEPES pH 7.5, 0.01% Tween-20, 2OG 200 μM, KDM4A, mean and standard deviation of three independent replicates, SD

**Q.** Which results are given for “TPVKKKAR[Lys(Me3)]SAGAAK [H1.4(18–32)K26me3, peptide of residues 18–32 of histone H1.4 with N ε-trimethyllysine at K26]”?
**A.** demethylation of the Kme3 residue by 1H NMR (result in words) (KDM4A): time‐dependent demethylation; K M (recombinant human KDM4A; [1]): 32.3 ± 6.4 µM; k cat (recombinant human KDM4A; [1]): 0.32 ± 0.049 s⁻¹; k cat/K M (recombinant human KDM4A; FDH-coupled assay, ratio of k cat (s^−1) and K M (μM)): 9800 M⁻¹ s⁻¹; demethylation activity on methylated H1.4 peptide (KDM3A (KDM3A515–1317)): 🔴; demethylation activity on methylated H1.4 peptide (KDM6B (KDM6B1141–1590)): 🔴; demethylation activity on methylated H1.4 peptide (KDM4A (KDM4A1–359)): 🟢
